The subject of experiment [1] is Mast/stem cell growth factor receptor Kit (Homo sapiens), P10721 [N822K]. Kind of experiment: (§1) Selectivity interaction (LanthaScreen Eu Kinase Binding Assay) EUB0001632a KIT. As to conditions: at 10 µM. In general terms: In TR-FRET formats the signal depends on donor and acceptor labels being close together.
The test system of experiment [2] is Mast/stem cell growth factor receptor Kit (Homo sapiens), P10721 [A829P]. The description is as §1. As to conditions: at 10 µM.
In experiment [3] the test system is Mast/stem cell growth factor receptor Kit (Homo sapiens), P10721 [T670E]. Described as §1. As to conditions: at 10 µM.
Experiment [4] deals with Mast/stem cell growth factor receptor Kit (Homo sapiens), P10721 [V654A]. Described as §1. The settings on record: at 10 µM.
Experiment [5] has as its system Mast/stem cell growth factor receptor Kit (Homo sapiens), P10721 [D816H]. The experiment is described as §1. The settings on record: at 10 µM.
The target of experiment [6] is T1, Inhibitor of nuclear factor kappa-B kinase subunit alpha (Homo sapiens) (UniProt O15111).
T1 sequence (whole entry): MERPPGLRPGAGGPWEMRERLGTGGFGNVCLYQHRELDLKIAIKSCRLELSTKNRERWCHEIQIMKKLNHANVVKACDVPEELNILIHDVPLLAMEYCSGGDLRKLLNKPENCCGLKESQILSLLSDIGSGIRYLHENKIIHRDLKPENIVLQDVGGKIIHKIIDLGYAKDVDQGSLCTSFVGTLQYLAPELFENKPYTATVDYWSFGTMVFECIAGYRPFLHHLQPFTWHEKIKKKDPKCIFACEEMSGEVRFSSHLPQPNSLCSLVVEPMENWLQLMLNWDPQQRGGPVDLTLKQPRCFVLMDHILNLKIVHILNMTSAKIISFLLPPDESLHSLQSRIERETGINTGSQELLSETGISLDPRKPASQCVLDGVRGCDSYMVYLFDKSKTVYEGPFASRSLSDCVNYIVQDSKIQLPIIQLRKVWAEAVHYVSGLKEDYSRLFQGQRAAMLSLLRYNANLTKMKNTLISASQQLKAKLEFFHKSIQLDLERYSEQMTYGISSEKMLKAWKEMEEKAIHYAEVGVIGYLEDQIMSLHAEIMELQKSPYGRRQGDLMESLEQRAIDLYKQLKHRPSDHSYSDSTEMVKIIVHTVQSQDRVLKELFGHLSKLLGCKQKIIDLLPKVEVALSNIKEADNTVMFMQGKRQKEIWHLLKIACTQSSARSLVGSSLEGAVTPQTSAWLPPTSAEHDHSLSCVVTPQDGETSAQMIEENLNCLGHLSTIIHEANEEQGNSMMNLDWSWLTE
In words: Selectivity interaction (KinomeScan (DiscoverX)) EUB0000595a CHUK. As to conditions: at 10 µM.

The target of experiment [7] is Tyrosine-protein kinase SYK (Homo sapiens, UniProt P43405). In words: Selectivity interaction (KinomeScan (DiscoverX)) EUB0001619a SYK. As to conditions: at 1 µM.
For experiment [8], the target named is T2, Serine/threonine-protein kinase RIO1 (Homo sapiens) (UniProt Q9BRS2).
T2 sequence (whole entry): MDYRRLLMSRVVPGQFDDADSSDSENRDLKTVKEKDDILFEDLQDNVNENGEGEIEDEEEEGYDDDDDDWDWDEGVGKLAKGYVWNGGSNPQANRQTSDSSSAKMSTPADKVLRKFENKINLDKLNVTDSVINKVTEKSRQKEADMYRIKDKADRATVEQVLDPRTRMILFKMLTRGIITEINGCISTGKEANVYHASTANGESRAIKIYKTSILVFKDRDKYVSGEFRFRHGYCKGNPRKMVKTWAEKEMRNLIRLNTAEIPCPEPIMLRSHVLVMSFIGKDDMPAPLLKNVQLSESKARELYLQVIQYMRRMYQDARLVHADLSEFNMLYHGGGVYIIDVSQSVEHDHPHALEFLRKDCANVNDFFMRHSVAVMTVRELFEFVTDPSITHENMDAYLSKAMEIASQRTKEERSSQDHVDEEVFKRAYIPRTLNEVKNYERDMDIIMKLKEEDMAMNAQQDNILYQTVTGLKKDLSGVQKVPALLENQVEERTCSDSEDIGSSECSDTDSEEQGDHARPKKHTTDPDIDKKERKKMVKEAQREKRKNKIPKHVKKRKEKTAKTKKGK
Kind of experiment: Selectivity interaction (KinomeScan (DiscoverX)) EUB0000695a RIOK1. As to conditions: at 100 nM.

In experiment [9] the target is Receptor tyrosine-protein kinase erbB-3 (Homo sapiens) (UniProt P21860). Kind of experiment: Selectivity interaction (KinomeScan (DiscoverX)) EUB0000666a ERBB3. The settings on record: at 10 µM.
Receptor tyrosine-protein kinase erbB-3 (Homo sapiens), sequence (P21860 whole entry): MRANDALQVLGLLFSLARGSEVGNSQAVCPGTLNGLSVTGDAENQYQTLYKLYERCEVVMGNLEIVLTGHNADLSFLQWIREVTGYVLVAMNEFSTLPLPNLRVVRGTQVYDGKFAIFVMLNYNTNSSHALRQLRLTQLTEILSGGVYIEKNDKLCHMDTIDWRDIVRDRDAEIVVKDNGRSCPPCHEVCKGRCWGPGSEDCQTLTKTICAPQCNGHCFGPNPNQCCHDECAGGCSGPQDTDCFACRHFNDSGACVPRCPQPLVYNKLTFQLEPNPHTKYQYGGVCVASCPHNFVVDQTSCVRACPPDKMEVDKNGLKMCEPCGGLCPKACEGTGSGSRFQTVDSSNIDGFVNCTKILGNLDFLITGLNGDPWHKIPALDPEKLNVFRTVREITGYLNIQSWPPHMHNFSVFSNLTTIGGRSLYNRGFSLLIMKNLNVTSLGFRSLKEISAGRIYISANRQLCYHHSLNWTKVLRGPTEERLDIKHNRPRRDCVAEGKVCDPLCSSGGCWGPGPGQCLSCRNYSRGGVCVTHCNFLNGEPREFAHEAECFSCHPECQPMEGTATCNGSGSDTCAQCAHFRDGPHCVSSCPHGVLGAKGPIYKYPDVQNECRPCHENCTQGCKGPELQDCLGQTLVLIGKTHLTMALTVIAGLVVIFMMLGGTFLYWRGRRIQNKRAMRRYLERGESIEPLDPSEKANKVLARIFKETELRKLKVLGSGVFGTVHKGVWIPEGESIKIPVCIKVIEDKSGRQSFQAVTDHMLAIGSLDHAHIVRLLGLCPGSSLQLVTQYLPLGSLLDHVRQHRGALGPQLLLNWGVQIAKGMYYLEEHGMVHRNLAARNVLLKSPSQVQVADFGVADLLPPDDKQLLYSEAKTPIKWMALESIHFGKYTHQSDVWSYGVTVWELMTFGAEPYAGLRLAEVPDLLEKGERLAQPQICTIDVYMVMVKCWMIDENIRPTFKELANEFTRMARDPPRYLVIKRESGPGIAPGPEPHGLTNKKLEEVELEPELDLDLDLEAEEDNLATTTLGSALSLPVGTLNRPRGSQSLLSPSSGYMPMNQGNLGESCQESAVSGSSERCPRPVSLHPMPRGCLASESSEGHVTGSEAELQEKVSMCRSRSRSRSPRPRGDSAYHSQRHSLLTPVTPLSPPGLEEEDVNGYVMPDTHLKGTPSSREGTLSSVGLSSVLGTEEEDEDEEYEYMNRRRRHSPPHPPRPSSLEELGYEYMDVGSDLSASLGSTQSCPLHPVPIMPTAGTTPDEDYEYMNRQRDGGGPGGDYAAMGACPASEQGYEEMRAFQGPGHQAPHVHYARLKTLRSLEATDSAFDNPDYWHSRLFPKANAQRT
Experiment [10] deals with T3, Serine/threonine-protein kinase LATS1 (Homo sapiens) (UniProt O95835).
T3 sequence (whole entry): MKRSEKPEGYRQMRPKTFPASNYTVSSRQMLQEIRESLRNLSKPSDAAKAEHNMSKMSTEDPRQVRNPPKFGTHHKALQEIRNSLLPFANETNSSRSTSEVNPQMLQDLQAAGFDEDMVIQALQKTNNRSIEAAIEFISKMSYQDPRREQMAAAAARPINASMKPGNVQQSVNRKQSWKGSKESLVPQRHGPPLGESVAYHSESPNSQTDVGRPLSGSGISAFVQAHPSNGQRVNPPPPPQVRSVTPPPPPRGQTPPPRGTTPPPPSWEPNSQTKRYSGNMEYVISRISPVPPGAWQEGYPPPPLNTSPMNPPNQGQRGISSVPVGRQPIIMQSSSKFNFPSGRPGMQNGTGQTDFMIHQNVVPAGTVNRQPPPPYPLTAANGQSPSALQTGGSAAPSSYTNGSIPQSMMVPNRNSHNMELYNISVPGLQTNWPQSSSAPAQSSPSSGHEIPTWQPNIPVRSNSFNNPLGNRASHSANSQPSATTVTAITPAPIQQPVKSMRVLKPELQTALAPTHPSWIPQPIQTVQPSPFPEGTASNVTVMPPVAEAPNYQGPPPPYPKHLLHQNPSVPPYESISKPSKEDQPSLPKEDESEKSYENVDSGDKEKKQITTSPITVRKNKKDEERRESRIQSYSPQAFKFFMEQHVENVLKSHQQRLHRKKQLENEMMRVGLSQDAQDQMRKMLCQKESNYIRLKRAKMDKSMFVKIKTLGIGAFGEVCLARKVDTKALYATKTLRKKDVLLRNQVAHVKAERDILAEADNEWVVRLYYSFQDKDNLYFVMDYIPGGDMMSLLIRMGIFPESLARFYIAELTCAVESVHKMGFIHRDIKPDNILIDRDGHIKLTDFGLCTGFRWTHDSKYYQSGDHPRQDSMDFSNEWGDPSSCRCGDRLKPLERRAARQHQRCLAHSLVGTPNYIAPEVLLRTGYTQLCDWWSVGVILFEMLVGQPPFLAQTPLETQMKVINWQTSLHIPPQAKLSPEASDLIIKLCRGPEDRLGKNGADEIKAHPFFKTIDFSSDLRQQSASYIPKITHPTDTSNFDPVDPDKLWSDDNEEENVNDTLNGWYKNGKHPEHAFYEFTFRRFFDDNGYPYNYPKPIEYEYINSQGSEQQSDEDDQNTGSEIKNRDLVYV
Kind of experiment: Selectivity interaction (KinomeScan (DiscoverX)) EUB0000666a LATS1. As to conditions: at 10 µM.

A further experiment has as its target Insulin receptor (Homo sapiens, UniProt P06213). In words: Selectivity interaction (KinomeScan (DiscoverX)) EUB0000655a INSR. As to conditions: at 10 µM.
Experiment [11] concerns the target Tyrosine-protein kinase ABL1 (Homo sapiens, UniProt P00519). In words: Selectivity interaction (KinomeScan (DiscoverX)) EUB0000618a ABL1. As to conditions: at 10 µM.

Mast/stem cell growth factor receptor Kit (Homo sapiens), P10721 [D816H], sequence (P10721 whole entry D816H): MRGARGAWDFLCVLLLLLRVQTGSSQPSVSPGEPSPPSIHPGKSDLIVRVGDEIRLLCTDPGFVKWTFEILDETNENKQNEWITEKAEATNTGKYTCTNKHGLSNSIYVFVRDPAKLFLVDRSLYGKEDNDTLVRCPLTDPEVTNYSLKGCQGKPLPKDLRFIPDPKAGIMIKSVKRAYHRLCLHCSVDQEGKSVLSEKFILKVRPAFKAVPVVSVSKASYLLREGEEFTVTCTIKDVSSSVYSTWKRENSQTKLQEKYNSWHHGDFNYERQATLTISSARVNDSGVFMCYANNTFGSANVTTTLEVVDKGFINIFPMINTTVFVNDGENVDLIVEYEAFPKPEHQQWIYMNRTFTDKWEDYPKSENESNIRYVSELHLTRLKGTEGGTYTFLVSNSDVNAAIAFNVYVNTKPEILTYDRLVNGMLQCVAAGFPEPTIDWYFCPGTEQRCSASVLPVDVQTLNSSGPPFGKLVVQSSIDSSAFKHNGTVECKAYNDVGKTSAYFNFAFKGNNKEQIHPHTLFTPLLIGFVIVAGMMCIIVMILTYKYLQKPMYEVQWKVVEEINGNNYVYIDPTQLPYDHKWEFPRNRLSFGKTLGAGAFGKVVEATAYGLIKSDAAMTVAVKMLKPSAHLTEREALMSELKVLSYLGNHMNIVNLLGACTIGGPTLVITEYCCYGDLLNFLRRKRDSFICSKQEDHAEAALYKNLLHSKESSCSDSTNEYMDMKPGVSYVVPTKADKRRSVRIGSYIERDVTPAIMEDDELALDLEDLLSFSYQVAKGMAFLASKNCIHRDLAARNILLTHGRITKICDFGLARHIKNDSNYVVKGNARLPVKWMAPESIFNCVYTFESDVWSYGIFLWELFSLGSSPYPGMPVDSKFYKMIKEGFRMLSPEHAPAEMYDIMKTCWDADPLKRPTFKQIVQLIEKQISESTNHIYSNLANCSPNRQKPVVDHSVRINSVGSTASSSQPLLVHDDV
Insulin receptor, sequence (P06213 28-758 limits assumed): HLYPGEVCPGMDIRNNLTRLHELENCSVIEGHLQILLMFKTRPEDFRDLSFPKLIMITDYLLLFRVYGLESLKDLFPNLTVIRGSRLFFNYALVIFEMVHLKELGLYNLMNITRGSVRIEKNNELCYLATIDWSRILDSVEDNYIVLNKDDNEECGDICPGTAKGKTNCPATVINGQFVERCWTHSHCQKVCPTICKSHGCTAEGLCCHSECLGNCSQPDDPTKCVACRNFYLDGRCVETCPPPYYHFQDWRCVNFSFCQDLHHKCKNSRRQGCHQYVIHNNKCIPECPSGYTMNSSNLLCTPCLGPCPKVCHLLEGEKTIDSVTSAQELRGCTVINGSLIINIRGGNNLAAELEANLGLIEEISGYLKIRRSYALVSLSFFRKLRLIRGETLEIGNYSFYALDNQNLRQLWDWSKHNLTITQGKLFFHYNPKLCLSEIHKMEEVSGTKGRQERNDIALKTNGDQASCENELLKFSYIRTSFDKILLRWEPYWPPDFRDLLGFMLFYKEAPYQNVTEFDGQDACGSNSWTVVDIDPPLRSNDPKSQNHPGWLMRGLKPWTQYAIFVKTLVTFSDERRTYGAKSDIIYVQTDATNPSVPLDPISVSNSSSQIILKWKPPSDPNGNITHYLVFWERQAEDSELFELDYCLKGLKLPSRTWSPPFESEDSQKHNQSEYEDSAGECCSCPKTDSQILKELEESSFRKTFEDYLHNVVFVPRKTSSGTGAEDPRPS
Insulin receptor, sequence (P06213 763-1382 limits assumed): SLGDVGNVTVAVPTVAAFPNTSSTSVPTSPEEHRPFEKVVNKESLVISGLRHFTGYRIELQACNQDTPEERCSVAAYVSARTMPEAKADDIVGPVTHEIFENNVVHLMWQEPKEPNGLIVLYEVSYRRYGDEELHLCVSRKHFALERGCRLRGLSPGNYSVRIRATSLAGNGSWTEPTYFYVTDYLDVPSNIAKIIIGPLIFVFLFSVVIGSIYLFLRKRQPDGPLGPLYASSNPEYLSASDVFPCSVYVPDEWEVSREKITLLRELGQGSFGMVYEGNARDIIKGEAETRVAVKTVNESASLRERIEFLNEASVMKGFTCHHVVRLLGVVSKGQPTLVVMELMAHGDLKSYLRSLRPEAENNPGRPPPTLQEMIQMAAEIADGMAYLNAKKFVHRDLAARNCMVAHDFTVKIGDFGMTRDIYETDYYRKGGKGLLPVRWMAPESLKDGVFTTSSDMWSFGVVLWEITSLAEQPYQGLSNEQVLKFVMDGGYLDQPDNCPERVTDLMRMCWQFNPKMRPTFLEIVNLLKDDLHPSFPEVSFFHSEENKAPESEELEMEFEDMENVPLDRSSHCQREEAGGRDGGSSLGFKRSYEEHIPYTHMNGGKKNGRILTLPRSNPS
Mast/stem cell growth factor receptor Kit (Homo sapiens), P10721 [N822K], sequence (P10721 whole entry N822K): as the sequence (P10721 whole entry D816H) above, with H816D, N822K counted along it

Regarding `Cn1cc(-n2cnc3c(NCc4nc5cc(Cl)c(Cl)cc5[nH]4)nc(N4CCOCC4)nc32)cn1`, the % of inhibition in [1] is -18.2%; in [2], -25.5%; in [3] it was -20.6%; in experiment [4], -40.6%; in [5], 9.61%.
With `COCC(=O)NC/C=C/c1ccc2ncnc(Nc3ccc(Oc4ccc(C)nc4)c(C)c3)c2c1` [CP-724714], in experiment [6], the % of control stood at 100%.
In the case of `N#Cc1cccc(-c2c[nH]c3ncnc(N4CCOCC4)c23)c1`, the % of control in [7] stood at 100%.
As to `Cc1cc(F)c(C(=O)Nc2cccc(-c3nncn3C(C)C)n2)cc1-n1cnc(C2CC2)c1`, the % of control in [8] was 100%.
For `O=C(NOC[C@H](O)CO)c1ccc(F)c(F)c1Nc1ccc(I)cc1F`, the % of control in experiment [9] and in experiment [10] was 100% in each case.
As to `CN(C)CCOc1ccc(-c2nc(-c3ccncc3)c(-c3ccc4c(c3)CC/C4=N\O)[nH]2)cc1`, at Insulin receptor, the % of control is 100%.
In [11], `O[C@H]1CC[C@H](Nc2ncc3nc(Nc4c(F)cc(F)cc4F)n([C@H]4CCOC4)c3n2)CC1` returned a % of control of 34%.

Source of the values: ChEMBL document CHEMBL5465560, “Selectivity Literature for EUbOPEN Chemogenomic Library” (2024).
